In patent US10035804B2, “Spirodiamine derivatives as aldosterone synthase inhibitors” (Hoffmann-La Roche Inc., priority 2014, dated 2018):

How the values were obtained:
[1] = system: patients with primary aldosteronism; conditions: oral; cited from earlier work
[2] = system: rat model of chronic kidney disease; conditions: cited from earlier work; for cardiac and aortic medial hypertrophy / renal effects (albuminuria, azotemia, renovascular hypertrophy, glomerular injury, PAI-1 and osteopontin mRNA, tubulointerstitial fibrosis): angiotensin II and high salt treated rats
[3] = system: rats with experimental heart failure; conditions: cited from earlier work
human CYP11B2 = human CYP11B2 (Homo sapiens (Human), UniProt P19099); experiment: G-402 cellular enzyme assay, human CYP11B2 (aldosterone release); assay type: cell-based; conditions: G-402 cells expressing human CYP11B2; 1 μM Deoxycorticosterone; aldosterone in supernatant after 16 h
Chain of human CYP11B2 (P19099 25-503): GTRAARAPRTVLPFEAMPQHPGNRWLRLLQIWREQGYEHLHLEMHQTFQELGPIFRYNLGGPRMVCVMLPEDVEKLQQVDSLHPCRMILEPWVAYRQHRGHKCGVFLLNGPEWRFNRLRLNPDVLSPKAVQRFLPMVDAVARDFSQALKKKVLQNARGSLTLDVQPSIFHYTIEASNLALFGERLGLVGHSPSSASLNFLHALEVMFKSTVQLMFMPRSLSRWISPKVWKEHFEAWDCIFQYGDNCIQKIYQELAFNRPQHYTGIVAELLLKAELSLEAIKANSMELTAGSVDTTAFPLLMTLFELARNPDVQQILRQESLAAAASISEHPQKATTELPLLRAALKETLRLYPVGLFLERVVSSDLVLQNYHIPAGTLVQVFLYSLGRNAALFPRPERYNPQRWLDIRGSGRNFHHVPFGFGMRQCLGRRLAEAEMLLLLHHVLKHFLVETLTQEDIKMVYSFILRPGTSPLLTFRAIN
Excerpt: (§1) Herein we identified the use of the G-402 cell line as a host cell to ectopically express (transiently or stably) enzymes of the CYP11 family. Specifically we developed stable G-402 cells expressing ectopically human CYP11B1, human CYP11B2, human CYP11A1, cynmolgus CYP11B1 or cynomolgus CYP11B2 enzyme activity. Importantly the identified cell line G-402 expresses co-factors (adrenodoxin and adrenodoxin reductase) important for the activity of the CYP11 family and no relevant enzyme activity of the CYP11 family (in comparison to H295R cells) was detected in these cells. Therefore the G-402 cell line is uniquely suited as a host cell for the ectopic expression of enzymes from the CYP11 family.
(§2) G-402 cells can be obtained from ATCC (CRL-1440) and were originally derived from a renal leiomyoblastoma.
(§3) The expression plasmids contains the ORF for either human/cyno CYP11B1 or CYP11B2 under the control of a suitable promoter (CMV-promoter) and a suitable resistance marker (neomycin). Using standard techniques the expression plasmid is transfected into G-402 cells and these cells are then selected for expressing the given resistance markers. Individual cell-clones are then selected and assessed for displaying the desired enzymatic activity using 11-Deoxycorticosterone (Cyp11B2) or 11-Deoxycortisol (Cyp11B1) as a substrate.
(§4) G-402 cells expressing CYP11 constructs were established as described above and maintained in McCoy's 5a Medium Modified, ATCC Catalog No. 30-2007 containing 10% FCS and 400 μg/ml G418 (Geneticin) at 37° C. under an atmosphere of 5% CO2/95% air. Cellular enzyme assays were performed in DMEM/F12 medium containing 2.5% charcoal treated FCS and appropriate concentration of substrate (0.3-10 uM 11-Deoxycorticosterone, 11-Deoxycortisol or Corticosterone). For assaying enzymatic activity, cells were plated onto 96 well plates and incubated for 16 h. An aliquot of the supernatant is then transferred and analyzed for the concentration of the expected product (Aldosterone for CYP11B2; Cortisol for CYP11B1). The concentrations of these steroids can be determined using HTRF assays from CisBio analyzing either Aldosterone or Cortisol.
(§5) Inhibition of the release of produced steroids can be used as a measure of the respective enzyme inhibition by test compounds added during the cellular enzyme assay. The dose dependent inhibition of enzymatic activity by a compound is calculated by means of plotting added inhibitor concentrations (x-axes) vs. measured steroid/product level (y-axes). The inhibition is then calculated by fitting the following 4-parameter sigmoidal function (Morgan-Mercer-Flodin (MMF) model) to the raw data points using the least squares method:
(§6) [formula] wherein, A is the maximum y value, B is the EC50 factor determined using XLFit, C is the minimum y value and D is the slope value.
(§7) EC50 values for compounds claimed herein were tested with the G402-based assay system described. Cyp11B2 enzyme activity was tested in presence of 1 μM Deoxycorticosterone and variable amounts of inhibitors; Cyp11B1 enzyme activity was tested in presence of 1 μM Deoxycortisol and variable amounts of inhibitors.

human CYP11B1 = human CYP11B1 (Homo sapiens (Human), UniProt P15538); experiment: G-402 cellular enzyme assay, human CYP11B1 (cortisol release); assay type: cell-based; conditions: G-402 cells expressing human CYP11B1; 1 μM Deoxycortisol; cortisol in supernatant after 16 h
Chain of human CYP11B1 (P15538 25-503): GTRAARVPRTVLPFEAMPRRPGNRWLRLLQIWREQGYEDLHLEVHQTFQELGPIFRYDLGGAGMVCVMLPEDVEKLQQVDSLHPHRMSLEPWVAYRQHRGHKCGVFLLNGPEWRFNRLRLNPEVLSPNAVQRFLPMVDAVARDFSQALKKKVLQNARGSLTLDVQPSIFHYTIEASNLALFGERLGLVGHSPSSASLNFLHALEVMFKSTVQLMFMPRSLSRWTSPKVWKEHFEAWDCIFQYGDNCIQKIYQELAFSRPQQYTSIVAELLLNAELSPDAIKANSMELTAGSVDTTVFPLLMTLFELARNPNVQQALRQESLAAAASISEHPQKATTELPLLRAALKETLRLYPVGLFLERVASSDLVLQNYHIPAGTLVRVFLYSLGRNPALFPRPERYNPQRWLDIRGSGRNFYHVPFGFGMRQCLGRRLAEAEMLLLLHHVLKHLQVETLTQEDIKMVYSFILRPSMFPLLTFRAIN
Excerpt: as §1, §2, §3, §4, §5, §6, §7

Compound | EC50 (human CYP11B2) [pM] | EC50 (human CYP11B1) [pM] | other results
N#Cc1ccc([C@H]2CCc3cncn32)c(F)c1 [LC1699] | – | – | blood pressure [1]: mildly decreased; circulating aldosterone levels [1]: significantly lower; hypokalemia [1]: corrected; selectivity (effects on the glucocorticoid axis, cortisol synthesis) [1]: poor selectivity
CC(=O)S[C@@H]1CC2=CC(=O)CC[C@]2(C)[C@H]2CC[C@@]3(C)[C@@H](CC[C@@]34CCC(=O)O4)[C@H]12 [spironolactone] | – | – | cardiac and aortic medial hypertrophy [2]: attenuated; renal effects (albuminuria, azotemia, renovascular hypertrophy, glomerular injury, PAI-1 and osteopontin mRNA, tubulointerstitial fibrosis) [2]: prevented these renal effects; aldosterone ([2]; at 4 and 8 weeks of treatment): increased; angiotensin II and salt-stimulated PAI-1 mRNA expression ([2]; in the aorta and the heart): enhanced
N#Cc1ccc([C@H]2CCCc3cncn32)cc1 [FAD286] | – | – | cardiac and aortic medial hypertrophy [2]: attenuated; renal effects (albuminuria, azotemia, renovascular hypertrophy, glomerular injury, PAI-1 and osteopontin mRNA, tubulointerstitial fibrosis) [2]: prevented these renal effects; plasma aldosterone ([2]; following 4 weeks of treatment): reduced; blood pressure and cardiovascular function and structure [3]: improved; kidney function and morphology [3]: improve
COc1nccnc1C(=O)N1CC2(C1)CN(c1cncc(N3C(=O)c4ccc(Cl)cc4C3(C)C)c1)C2 [Example 37, 5-Chloro-2-[5-[2-(3-methoxypyrazine-2-carbonyl)-2,6-diazaspiro[3.3]heptan-6-yl]-3-pyridyl]-3,3-dimethyl-isoindolin-1-one] | 75.4 | 16100 | –
Cn1cc(C(=O)N2CC3(C2)CN(c2cncc(N4C(=O)c5ccc(Cl)cc5C4(C)C)c2)C3)c(C(F)F)n1 [Example 35, 5-Chloro-2-[5-[2-[3-(difluoromethyl)-1-methyl-pyrazole-4-carbonyl]-2,6-diazaspiro[3.3]heptan-6-yl]-3-pyridyl]-3,3-dimethyl-isoindolin-1-one] | 333 | 29500 | –
CCn1cc(C(=O)N2CC3(C2)CN(c2cncc(N4C(=O)c5ccc(Cl)cc5C4(C)C)c2)C3)cn1 [Example 2, 5-Chloro-2-[5-[2-(1-ethylpyrazole-4-carbonyl)-2,6-diazaspiro[3.3]heptan-6-yl]-3-pyridyl]-3,3-dimethyl-isoindolin-1-one] | 3 | 11100 | –
Cc1ccncc1C(=O)N1CC2(C1)CN(c1cncc(N3C(=O)c4ccc(C#N)cc4C3(C)C)c1)C2 [Example 14, 3,3-Dimethyl-2-[5-[2-(4-methylpyridine-3-carbonyl)-2,6-diazaspiro[3.3]heptan-6-yl]-3-pyridyl]-1-oxo-isoindoline-5-carbonitrile] | 40.7 | 21000 | –
Cc1cncc(C(=O)N2CC3(C2)CN(c2cncc(N4C(=O)c5ccc(Cl)cc5C4(C)C)c2)C3)n1 [Example 28, 5-Chloro-3,3-dimethyl-2-[5-[2-(6-methylpyrazine-2-carbonyl)-2,6-diazaspiro[3.3]heptan-6-yl]-3-pyridyl]isoindolin-1-one] | 57.7 | 640 | –
Cn1nccc1C(=O)N1CC2(C1)CN(c1cncc(N3C(=O)c4ccc(C#N)cc4C3(C)C)c1)C2 [Example 12, 3,3-Dimethyl-2-[5-[2-(2-methylpyrazole-3-carbonyl)-2,6-diazaspiro[3.3]heptan-6-yl]-3-pyridyl]-1-oxo-isoindoline-5-carbonitrile] | 191 | > 30000 | –
CC(C)n1cc(C(=O)N2CC3(C2)CN(c2cncc(N4C(=O)c5ccc(C#N)cc5C4(C)C)c2)C3)cn1 [Example 10, 2-[5-[2-(1-Isopropylpyrazole-4-carbonyl)-2,6-diazaspiro[3.3]heptan-6-yl]-3-pyridyl]-3,3-dimethyl-1-oxo-isoindoline-5-carbonitrile] | 15.5 | 25600 | –
CC1(C)c2cc(Cl)ccc2C(=O)N1c1cncc(N2CC3(CN(C(=O)c4cnccc4C#N)C3)C2)c1 [Example 50, 3-[6-[5-(6-Chloro-1,1-dimethyl-3-oxo-isoindolin-2-yl)-3-pyridyl]-2,6-diazaspiro[3.3]heptane-2-carbonyl]pyridine-4-carbonitrile] | 24.8 | 16800 | –
